# No end group written: not given here.
# Tested on: fresh mice erythrocytes
# Assay type: cell-based, mouse
# Conditions: PBS pH 7.4; 30 min; 37 °C
# From the text: Peptide and different pH of culture medium prepared. The pH of BHI medium was adjusted by HCl and NaOH. All peptides, including lycosin- I, pHly-1, s-pHly-1 were synthesized on a Rink amide-AM resin using the SPPS
# (9- fluorenyl-methoxycarbonyl solid-phase peptide synthesis) method as reported previously1. Then peptides were cleaved from the resin using TFA/1,2- ethanedithiol/thioanisole/anisole (90/5/3/2 (v/v)), precipitated in cold diethyl ether and the collected precipitate was dried by air -drying . The prepared peptides were purified by reverse phase- HPLC (RP-HPLC) and their molecular weights were determined by MALDI-TOF MS.
# Hemolytic assay. Approximately 4 % (in volume) of the mouse erythrocyte s were prepared by diluting fresh erythrocytes to 25-fold dilution with PBS buffer (pH 7.4).
# The stock peptide solution ([…]) diluted by PBS solution to reach various concentrations (200 μL) was placed in a 1.5 mL sterile microfuge tube, followed by the addition of 200 μ L o f erythrocyte suspension. The mixture was incubated at 37 °C for 30 min. Then, the mixture was centrifuged at 3,500 rpm for 5 min to collect the supernatant. Aliquots (100 μL) of the supernatant were removed to 96-well plates, and the absorbance was detected at 450 nm using a microplate reader (Multiskan Spectrum, BioTek Inc., USA). Untreated erythrocyte suspension in an equal volume of PBS solution and 0.1% Triton X-100 were used as the negative control and positive […]
# Isolation and culture of clinical S.mutans strains. Ethical approval of the study and the written consent/permission forms were obtained from Institutional Review Board (IRB) at Hunan Normal University prior to the study. For each child, written permission form was reviewed and signed by their legal guardians. Plaque -biofilm samples were collected from patients, including 16 Middle-aged and young patients and 4 children (age between 48 and 72 months) diagnosed with severe early childhood caries (S-ECC) in Changsha Stomatological Hospital. […]
substance,measurement,value
LHQHLHQHAIFHAIIHMAHFWIK-NH2 [s-pHly-1 NPs],HC50,423.0 µM
